From patent US20190388421A1, “NOVEL COMPOUNDS AND PHARMACEUTICAL COMPOSITIONS THEREOF FOR THE TREATMENT OF FIBROSIS” (Galapagos NV, priority 2016, published 2019)

What was measured:
[1] = molecular target: T1, human GPCR sphingosine 1-phosphate receptor 2 (S1PR2) (Homo sapiens, UniProt O95136); assay: S1P2 antagonist assay (Ca2+ flux, S1P at EC80); format: cell-based; conditions: CHO-S1PR2 cells, highest concentration 20 μM
T1 construct: host or cells: CHO
How it was run: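 CHO cells stably overexpressing human S1PR2, serum-starved 1 h and loaded with Fluo8 dye, were read for 3 min after compound addition, then stimulated with S1P at EC80 after 15 min at 37 °C. Top concentration 20 μM in a 10-point 1/3 series; Ca2+ fluorescence ratio normalized to vehicle and S1P EC80, giving EC50.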

[2] = molecular target: T2, human GPCR sphingosine 1-phosphate receptor 1 (S1PR1) (Homo sapiens, UniProt P21453); assay: S1PR1 selectivity assay (Ca2+ flux, antagonist); format: cell-based; conditions: S1P1 antagonist EC50, CHO cells overexpressing human S1PR1 and Gq protein
T2 construct: host or cells: CHO
T2 sequence (P21453 whole entry): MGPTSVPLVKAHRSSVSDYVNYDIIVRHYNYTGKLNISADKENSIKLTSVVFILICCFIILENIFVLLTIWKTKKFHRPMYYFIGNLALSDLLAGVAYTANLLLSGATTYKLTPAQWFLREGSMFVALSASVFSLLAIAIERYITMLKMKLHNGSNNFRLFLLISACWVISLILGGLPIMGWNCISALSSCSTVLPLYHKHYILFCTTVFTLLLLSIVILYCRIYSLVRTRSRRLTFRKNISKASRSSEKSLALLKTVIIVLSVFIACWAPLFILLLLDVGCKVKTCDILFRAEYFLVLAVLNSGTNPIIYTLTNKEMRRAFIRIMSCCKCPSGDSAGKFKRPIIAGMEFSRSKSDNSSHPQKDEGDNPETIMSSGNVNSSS
Description: (§1) After readout of the agonist activity, the plates are incubated for 15 min at 37° C. and 5% CO2. Then, cells are stimulated with 10 μL Sphingosine-1-Phosphate (S1P) (Avanti Polar lipids-860492P) at its EC80 concentration. Intracellular Ca^2+ changes are immediately measured by reading fluorescence during 3 min (FDSS/μCELL reader). The ratio of the maximal fluorescence over the background fluorescence before compound injection is used to determine compound response.
(§2) For EC50 determination, a 10 point dilution series of compounds starting from 23.3 μM and 20 μM highest final concentration for agonist and antagonist respectively, ⅓ dilution was performed.
(§3) The obtained ratio's for agonist and antagonist readout were normalized versus vehicle and EC100 of S1P as controls for agonist mode and versus vehicle and EC80 of S1P for antagonist mode. From these normalized data EC50 of the compounds are derived.
(§4) To evaluate the selectivity of the compounds for S1PR2 over S1PR1 and S1PR5, a similar assay set up as described above for the S1PR2 calcium flux assays was performed: CHO cells stably overexpressing human GPCR sphingosine 1-phosphate receptor 1 and Gq protein (Euroscreen, FAST-0197A) or overexpressing human GPCR sphingosine 1-phosphate receptor 5 and Gq protein were used (Perkin Elmer, ES-593-A). In case of the S1PR5 assay triggering was done with an S1PR5 specific agonist instead of with S1P (Hobson et al., 2015).

[3] = molecular target: T3, human GPCR sphingosine 1-phosphate receptor 5 (S1PR5) (Homo sapiens, UniProt Q9H228); assay: S1PR5 selectivity assay (Ca2+ flux, antagonist, S1PR5 specific agonist trigger); format: cell-based; conditions: S1P5 antagonist EC50, CHO cells overexpressing human S1PR5 and Gq protein
T3 construct: host or cells: CHO
T3 sequence (Q9H228 whole entry): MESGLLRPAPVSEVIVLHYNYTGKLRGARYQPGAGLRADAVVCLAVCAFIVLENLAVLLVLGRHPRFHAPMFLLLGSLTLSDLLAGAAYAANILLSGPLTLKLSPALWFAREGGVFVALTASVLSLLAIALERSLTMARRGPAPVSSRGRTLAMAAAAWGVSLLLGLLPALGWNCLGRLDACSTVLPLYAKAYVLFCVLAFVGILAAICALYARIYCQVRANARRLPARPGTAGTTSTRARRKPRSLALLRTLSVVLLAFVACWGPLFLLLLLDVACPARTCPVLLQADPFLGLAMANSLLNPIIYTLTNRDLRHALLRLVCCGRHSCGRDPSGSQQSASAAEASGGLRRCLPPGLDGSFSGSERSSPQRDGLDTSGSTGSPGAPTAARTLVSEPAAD
Description: as §1, §2, §3, §4

S1PR2 = molecular target: T4, S1PR2 (Homo sapiens, UniProt O95136); assay: GTP-γS binding assay ([35S]GTPγS, S1P at EC80, S1PR2 membranes); format: biochemical; conditions: membranes from stable cell line over expressing S1PR2, read-out: S1PR2 EC
T4 construct: expressed in transfected cells
T4 sequence (O95136 whole entry): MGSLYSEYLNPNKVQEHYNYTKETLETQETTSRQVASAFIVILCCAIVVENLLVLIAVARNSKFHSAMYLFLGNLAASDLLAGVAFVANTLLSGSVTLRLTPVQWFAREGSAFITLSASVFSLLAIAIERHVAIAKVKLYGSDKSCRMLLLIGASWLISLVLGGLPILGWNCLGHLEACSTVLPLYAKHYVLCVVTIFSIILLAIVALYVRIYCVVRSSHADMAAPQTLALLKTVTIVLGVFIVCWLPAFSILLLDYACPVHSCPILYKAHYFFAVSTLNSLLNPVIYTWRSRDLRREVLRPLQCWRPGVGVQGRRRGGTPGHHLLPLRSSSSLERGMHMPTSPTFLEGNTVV
How it was run: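 Compounds tested against S1P at its EC80 on membranes (2.5 μg/well) from a stable S1PR2-overexpressing line, pre-incubated with 1 μM GDP 15 min at 4 °C. Buffer: 20 mM Tris pH 7.5, 10 mM MgCl2, 100 mM NaCl, 0.1% fatty-acid-free BSA, 50 ug/ml saponin. Incubated 4 h at room temperature; [35S]GTPγS binding read by WGA SPA beads.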

HFL-1 cells [4] = assay: IL8 assay (S1P induced IL-8 production); format: cell-based; conditions: Homo sapiens, HFL1; S1P (1 μM) induced IL-8, HFL-1 cells, without HSA
Description: (§5) S1P is able to induce cytokines such as IL-8 in a process that is S1PR2 dependent (O'Sullivan et al, 2014; Bruennert et al, 2015). This assay is designed to test inhibitory activity of compounds on S1P induced IL-8 on HFL-1 cells, a human fetal lung fibroblast cell line.
Human Fetal Lung cells (HFL-1) are seeded in 96 well plates in growth medium (F12K+10% heat inactivated FBS+1% Pen/strep). After overnight incubation at 37° C., 5% CO2 cells are refreshed with starvation medium without HSA (F12K+1% FBS+1% Pen/strep). On day three, compounds are added (10 point serial dilution, 30 μM highest concentration, ⅓ dilution, 0.3% DMSO final) and plates are incubated for one hour at 37° C., 5% CO2. Subsequently S1P at 1 μM final concentration is added and plates are incubated for 16 to 24 hours at 37° C., 5% CO2 after which the supernatant was collected. IL-8 levels in the supernatant are determined with the IL-8 ELISA of R&D systems.

HFL-1 cells [5] = assay: IL8 assay in the presence of Human Serum Albumin; format: cell-based; conditions: HFL1, S1P (5 μM) induced IL-8, HFL-1 cells, with 2% HSA, read-out: HSA IL8 EC50
Description: as §5
To evaluate the influence of plasma protein binding of Sip as well as compound, the S1P induced IL-8 levels were evaluated in presence of 2% Human Serum Albumin (HSA, equivalent to 40% human serum). By adding 2% HSA, which affects both the activity of the compounds as well as the S1P potency, the physiological condition are reproduced and the shift in potency expected under in vivo serum conditions can be measured.
Human Fetal Lung cells (HFL-1) are seeded in 96 well plates in growth medium (F12K+10% heat inactivated FBS+1% Pen/strep). After overnight incubation at 37° C., 5% CO2 cells are refreshed with starvation medium with HSA (F12K+1% FBS+1% Pen/strep+1.95% HSA). On day three, compounds are added (10 point serial dilution, 30 μM highest concentration, 1/3 dilution, 0.3% DMSO final) and plates are incubated for 1 h at 37° C., 5% CO2. Subsequently S1P at 5 μM final concentration is added and plates are incubated for 16 to 24 h at 37° C., 5% CO2 after which the supernatant was collected. IL-8 levels in the supernatant are determined with the IL-8 ELISA of R&D systems.

T1 sequence (O95136 whole entry): as above

Compound	EC50 [1]	EC50 [2]	EC50 [3]	EC50 (S1PR2)	EC50 (HFL-1 cells [4])	IC50 (HFL-1 cells [5])
CCOc1cc(NC(=O)NC(C)c2cc(C)c(-c3cn(C)nc3C(F)(F)F)nn2)cc(Cl)n1 (stereo not drawn) [Compound 3, 1-(2-chloro-6-ethoxy-4-pyridyl)-3-[1-[5-methyl-6-[1-methyl-3-(trifluoromethyl)pyrazol-4-yl]pyridazin-3-yl]ethyl]urea]	26 nM	≥ 19800 nM	6610 nM	115 nM	22 nM	478 nM
Cc1cc(CNC(=O)Nc2cc(OCCO)nc(C(F)(F)F)c2)nnc1-c1cn(C)nc1C(F)(F)F [Compound 4, 1-[2-(2-hydroxyethoxy)-6-(trifluoromethyl)-4-pyridyl]-3-[[5-methyl-6-[1-methyl-3-(trifluoromethyl)pyrazol-4-yl]pyridazin-3-yl]methyl]urea]	348 nM	≥ 19800 nM	≥ 19800 nM	873 nM	234 nM	652 nM
Cc1cc(CNC(=O)Nc2cc(OCC3CC(F)(F)C3)nc(C(F)(F)F)c2)nnc1-c1cn(C)nc1C(F)(F)F [Compound 42, 1-[2-[(3,3-difluorocyclo-butyl)methoxy]-6-(trifluoromethyl)-4-pyridyl]-3-[[5-methyl-6-[1-methyl-3-(trifluoromethyl)pyrazol-4-yl]pyridazin-3-yl]methyl]urea]	292 nM	–	–	604 nM	50.9 nM	1240 nM
CCOc1cc(NC(=O)NCc2cc(C)c(-c3cn(C)nc3C)nn2)cc(Cl)n1 [Compound 68]	25.4 nM	≥ 19800 nM	–	111 nM	153 nM	3460 nM
Cc1cc(CNC(=O)Nc2cc(C(F)(F)F)nc(OCCO)c2C)nnc1-c1cn(C)nc1C(F)(F)F [Compound 73, 1-[2-(2-hydroxyethoxy)-3-methyl-6-(trifluoromethyl)-4-pyridyl]-3-[[5-methyl-6-[1-methyl-3-(trifluoromethyl)pyrazol-4-yl]pyridazin-3-yl]methyl]urea]	84 nM	≥ 19800 nM	–	160 nM	51 nM	256 nM
CCOc1ncc(NC(=O)NCc2cc(C)c(N3CC(C)OC(C)C3)nn2)cc1C(F)(F)F (stereo not drawn) [Compound 85, 1-[[6-(2,6-dimethyl-morpholin-4-yl)-5-methyl-pyridazin-3-yl]methyl]-3-[6-ethoxy-5-(trifluoromethyl)-3-pyridyl]urca]	487 nM	–	–	3560 nM	427 nM	9950 nM
CCOc1cc(NC(=O)NCc2cc(C)c(N3C[C@@H](C)O[C@@H](C)C3)nn2)cc(C)n1 [Compound 93, 1-[[6-[(2R,6S)-2,6-dimethyl-morpholin-4-yl]-5-methyl-pyridazin-3-yl]methyl]-3-(2-ethoxy-6-methyl-4-pyridyl)urca]	1050 nM	–	6610 nM	2170 nM	753 nM	2200 nM
CCOc1nc(C)cc(NC(=O)NCc2cc(C)c(N3C[C@@H](C)O[C@@H](C)C3)nn2)c1Cl [Compound 94, 1-(3-chloro-2-ethoxy-6-methyl-4-pyridyl)-3-[[6-[(2R,6S)-2,6-dimethyl-morpholin-4-yl]-5-methyl-pyridazin-3-yl]methyl]urea]	27 nM	–	479 nM	509 nM	102 nM	5950 nM
Cc1cc(CNC(=O)Nc2cc(Cl)nc(OCC(F)F)c2)nnc1N1CCOC(CN(C)C)C1 (stereo not drawn) [Compound 97, 1-[2-chloro-6-(2,2-difluoroethoxy)-4-pyridyl]-3-[[6-[2-[(dimethylamino)methyl]morpholin-4-yl]-5-methyl-pyridazin-3-yl]methyl]urea]	81 nM	–	–	274 nM	62 nM	1800 nM

These reach a lower EC50 [1]. Values come first.

EC50 [1]	EC50 [2]	EC50 [3]	EC50 (S1PR2)	EC50 (HFL-1 cells [4])	IC50 (HFL-1 cells [5])	Compound
17.3 nM	–	–	136 nM	11.3 nM	393 nM	Cc1cc(CNC(=O)Nc2cc(Cl)nc(Cl)c2)nnc1-c1cn(C)nc1C(F)(F)F [Compound 21, 1-(2,6-dichloro-4-pyridyl)-3-[[5-methyl-6-[1-methyl-3-(trifluoromethyl)pyrazol-4-yl]pyridazin-3-yl]methyl]urea]
11.2 nM	–	–	129 nM	4.6 nM	98.5 nM	CCOc1cc(NC(=O)NCc2cc(C)c(-c3cn(CC(C)O)nc3C(F)(F)F)nn2)cc(C(F)(F)F)n1 (stereo not drawn) [Compound 56, 1-[2-ethoxy-6-(trifluoromethyl)-4-pyridyl]-3-[[6-[1-(2-hydroxypropyl)-3-(trifluoromethyl)pyrazol-4-yl]5-methyl-pyridazin-3-yl]methyl]urea]
11 nM	–	–	160 nM	66 nM	30000 nM	CCOc1cc(NC(=O)NCc2cc(C)c(N3CC(F)(F)C3)nn2)cc(Cl)n1 [Compound 83, 1-(2-Chloro-6-ethoxy-pyridin-4-yl)-3-[6-(3,3-difluoro-azetidin-1-yl)-5-methyl-pyridazin-3-ylmethyl]-urea]
10.8 nM	–	–	62.9 nM	4.6 nM	74.9 nM	Cc1cc(CNC(=O)Nc2cc(Cl)nc(OCCF)c2)nnc1-c1cn(C)nc1C(F)(F)F [Compound 16, 1-[2-chloro-6-(2-fluoroethoxy)-4-pyridyl]-3-[[5-methyl-6-[1-methyl-3-(trifluoromethyl)pyrazol-4-yl]pyridazin-3-yl]methyl]urea]
9.5 nM	5970 nM	6610 nM	33.2 nM	2.2 nM	61.5 nM	CCOc1cc(NC(=O)NCc2cc(C)c(-c3cn(C)nc3C(F)(F)F)nn2)cc(C(F)(F)F)n1 [Compound 1, 1-(2-Ethoxy-6-trifluoromethyl-pyridin-4-yl)-3-[5-methyl-6-(1-methyl-3-trifluoromethyl-1H-pyrazol-4-yl)-pyridazin-3-ylmethyl]-urea]
8.5 nM	4540 nM	4600 nM	22.4 nM	1.5 nM	25.1 nM	CCOc1cc(NC(=O)NCc2cc(C)c(-c3cn(C)nc3C(F)(F)F)nn2)cc(Cl)n1 [Compound 2, 1-(2-Chloro-6-ethoxy-pyridin-4-yl)-3-[5-methyl-6-(1-methyl-3-trifluoromethyl-1H-pyrazol-4-yl)-pyridazin-3-ylmethyl]-urea]
